According to ChEMBL document CHEMBL5505966, “Synthesis and pharmacological characterization of conformationally restricted 2-amino-Adipic acid analogs and carboxycyclopropyl glycines as selective metabotropic glutamate 2 receptor agonists” (Eur J Med Chem, 2024):
pEC50: −log10 of the molar value. Active and inactive are the calls of the source. The rule behind the calls is not given here.

What was measured:
[1] = molecular target: Metabotropic glutamate receptor 1 (Rattus norvegicus) (UniProt P23385); experiment: Agonist activity at rat mGluR1 receptor expressed in HEK293 cells at 30 uM by IP-1 HTRF assay; format: functional, cell-based
Metabotropic glutamate receptor 1 (Rattus norvegicus), sequence (P23385 19-1199 limits assumed): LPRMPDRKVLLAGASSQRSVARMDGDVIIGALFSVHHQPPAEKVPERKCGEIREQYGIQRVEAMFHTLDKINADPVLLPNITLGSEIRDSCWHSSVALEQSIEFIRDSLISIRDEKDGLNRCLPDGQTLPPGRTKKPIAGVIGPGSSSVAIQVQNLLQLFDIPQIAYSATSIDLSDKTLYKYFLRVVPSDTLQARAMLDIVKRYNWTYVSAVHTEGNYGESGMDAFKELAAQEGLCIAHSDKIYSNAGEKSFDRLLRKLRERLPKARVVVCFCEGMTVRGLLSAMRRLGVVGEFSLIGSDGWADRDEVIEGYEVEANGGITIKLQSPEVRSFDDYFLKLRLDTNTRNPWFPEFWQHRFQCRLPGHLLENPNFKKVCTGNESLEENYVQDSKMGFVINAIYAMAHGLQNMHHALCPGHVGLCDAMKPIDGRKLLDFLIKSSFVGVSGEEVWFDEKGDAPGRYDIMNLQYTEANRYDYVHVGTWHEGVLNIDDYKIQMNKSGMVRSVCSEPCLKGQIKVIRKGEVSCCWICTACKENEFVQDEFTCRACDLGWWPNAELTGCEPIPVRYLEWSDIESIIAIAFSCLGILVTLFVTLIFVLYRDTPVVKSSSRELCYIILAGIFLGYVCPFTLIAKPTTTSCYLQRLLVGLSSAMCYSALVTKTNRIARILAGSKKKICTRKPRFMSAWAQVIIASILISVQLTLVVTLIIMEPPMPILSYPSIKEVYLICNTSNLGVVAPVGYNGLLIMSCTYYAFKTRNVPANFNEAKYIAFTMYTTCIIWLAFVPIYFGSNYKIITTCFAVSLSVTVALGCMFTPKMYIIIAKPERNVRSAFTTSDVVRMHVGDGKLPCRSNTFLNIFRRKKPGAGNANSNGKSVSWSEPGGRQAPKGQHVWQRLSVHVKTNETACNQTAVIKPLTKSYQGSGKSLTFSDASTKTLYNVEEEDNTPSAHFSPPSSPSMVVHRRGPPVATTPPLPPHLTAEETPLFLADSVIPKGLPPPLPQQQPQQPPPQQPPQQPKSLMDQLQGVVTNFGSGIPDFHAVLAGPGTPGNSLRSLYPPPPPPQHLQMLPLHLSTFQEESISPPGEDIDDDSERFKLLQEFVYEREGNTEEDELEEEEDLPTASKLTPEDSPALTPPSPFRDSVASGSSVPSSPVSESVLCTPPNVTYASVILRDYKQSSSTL

[2] = molecular target: Metabotropic glutamate receptor 5 (Rattus norvegicus) (UniProt P31424); experiment: Agonist activity at rat mGluR5 receptor expressed in HEK293 cells at 30 uM by IP-1 HTRF assay; format: functional, cell-based
Metabotropic glutamate receptor 5 (Rattus norvegicus), sequence (P31424 21-1203 limits assumed): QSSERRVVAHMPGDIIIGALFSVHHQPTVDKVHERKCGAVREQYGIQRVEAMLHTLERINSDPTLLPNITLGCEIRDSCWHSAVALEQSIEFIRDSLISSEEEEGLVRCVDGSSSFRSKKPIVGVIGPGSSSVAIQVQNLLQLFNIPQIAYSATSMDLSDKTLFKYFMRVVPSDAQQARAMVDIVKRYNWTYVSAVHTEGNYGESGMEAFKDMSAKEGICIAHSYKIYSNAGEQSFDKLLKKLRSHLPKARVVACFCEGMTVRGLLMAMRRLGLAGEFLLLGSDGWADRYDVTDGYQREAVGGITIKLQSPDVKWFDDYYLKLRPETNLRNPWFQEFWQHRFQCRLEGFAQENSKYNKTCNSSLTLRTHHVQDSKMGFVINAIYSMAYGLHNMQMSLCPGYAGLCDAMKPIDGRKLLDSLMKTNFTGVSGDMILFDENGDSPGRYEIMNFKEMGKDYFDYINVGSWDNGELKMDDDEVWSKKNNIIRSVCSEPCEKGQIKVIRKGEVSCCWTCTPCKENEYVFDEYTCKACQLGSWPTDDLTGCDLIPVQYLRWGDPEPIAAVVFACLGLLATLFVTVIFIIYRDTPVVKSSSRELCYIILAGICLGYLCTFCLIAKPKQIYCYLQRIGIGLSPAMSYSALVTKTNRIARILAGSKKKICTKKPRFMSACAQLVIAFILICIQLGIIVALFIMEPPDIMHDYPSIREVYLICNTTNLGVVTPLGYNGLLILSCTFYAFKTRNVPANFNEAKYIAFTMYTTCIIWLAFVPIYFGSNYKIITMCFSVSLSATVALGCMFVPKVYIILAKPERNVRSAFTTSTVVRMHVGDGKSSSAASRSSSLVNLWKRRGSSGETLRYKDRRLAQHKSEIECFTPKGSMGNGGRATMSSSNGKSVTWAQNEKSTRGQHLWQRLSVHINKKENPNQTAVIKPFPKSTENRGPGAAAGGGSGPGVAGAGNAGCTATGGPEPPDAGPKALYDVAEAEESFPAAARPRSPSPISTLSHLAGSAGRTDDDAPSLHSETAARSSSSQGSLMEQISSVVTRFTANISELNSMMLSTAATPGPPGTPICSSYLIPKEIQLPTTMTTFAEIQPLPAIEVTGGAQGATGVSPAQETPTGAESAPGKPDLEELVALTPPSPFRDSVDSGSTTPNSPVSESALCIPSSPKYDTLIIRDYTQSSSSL

[3] = molecular target: Metabotropic glutamate receptor 2 (Rattus norvegicus) (UniProt P31421); experiment: Agonist activity at rat mGluR2 receptor expressed in HEK293 cells at 30 uM by IP-1 HTRF assay; format: functional, cell-based
Metabotropic glutamate receptor 2 (Rattus norvegicus), sequence (P31421 19-872 limits assumed): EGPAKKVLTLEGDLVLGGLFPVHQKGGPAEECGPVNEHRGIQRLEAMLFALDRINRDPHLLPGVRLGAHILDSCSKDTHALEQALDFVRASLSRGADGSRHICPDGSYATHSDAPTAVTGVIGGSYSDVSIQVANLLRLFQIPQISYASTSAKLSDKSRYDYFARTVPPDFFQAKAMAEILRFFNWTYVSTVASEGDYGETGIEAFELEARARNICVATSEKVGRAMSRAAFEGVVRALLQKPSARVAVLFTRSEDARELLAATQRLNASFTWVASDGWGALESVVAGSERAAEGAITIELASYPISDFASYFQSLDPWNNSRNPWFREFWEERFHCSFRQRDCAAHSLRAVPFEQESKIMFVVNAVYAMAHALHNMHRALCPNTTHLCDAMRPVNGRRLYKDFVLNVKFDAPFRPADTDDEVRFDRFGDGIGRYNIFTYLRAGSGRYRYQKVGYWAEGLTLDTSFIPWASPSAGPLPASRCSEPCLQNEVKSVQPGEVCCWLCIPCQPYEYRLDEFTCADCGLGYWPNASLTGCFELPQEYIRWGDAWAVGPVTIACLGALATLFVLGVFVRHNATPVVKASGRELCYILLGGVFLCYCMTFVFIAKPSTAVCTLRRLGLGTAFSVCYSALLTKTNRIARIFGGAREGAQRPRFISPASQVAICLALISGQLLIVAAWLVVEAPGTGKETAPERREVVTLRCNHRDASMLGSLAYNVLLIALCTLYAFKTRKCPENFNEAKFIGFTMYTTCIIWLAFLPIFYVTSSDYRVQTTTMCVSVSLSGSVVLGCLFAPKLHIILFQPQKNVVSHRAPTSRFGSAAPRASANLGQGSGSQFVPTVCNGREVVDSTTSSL

[4] = molecular target: Metabotropic glutamate receptor 3 (Rattus norvegicus) (UniProt P31422); experiment: Agonist activity at rat mGluR3 receptor expressed in HEK293 cells at 30 uM by IP-1 HTRF assay; format: functional, cell-based
[5] = molecular target: Metabotropic glutamate receptor 4 (Rattus norvegicus) (UniProt P31423); experiment: Agonist activity at rat mGluR4 receptor expressed in HEK293 cells at 30 uM by IP-1 HTRF assay; format: functional, cell-based
[6] = molecular target: Metabotropic glutamate receptor 6 (Rattus norvegicus) (UniProt P35349); experiment: Agonist activity at rat mGluR6 receptor expressed in HEK293 cells at 30 uM by IP-1 HTRF assay; format: functional, cell-based
Metabotropic glutamate receptor 6 (Rattus norvegicus), sequence (P35349 whole entry): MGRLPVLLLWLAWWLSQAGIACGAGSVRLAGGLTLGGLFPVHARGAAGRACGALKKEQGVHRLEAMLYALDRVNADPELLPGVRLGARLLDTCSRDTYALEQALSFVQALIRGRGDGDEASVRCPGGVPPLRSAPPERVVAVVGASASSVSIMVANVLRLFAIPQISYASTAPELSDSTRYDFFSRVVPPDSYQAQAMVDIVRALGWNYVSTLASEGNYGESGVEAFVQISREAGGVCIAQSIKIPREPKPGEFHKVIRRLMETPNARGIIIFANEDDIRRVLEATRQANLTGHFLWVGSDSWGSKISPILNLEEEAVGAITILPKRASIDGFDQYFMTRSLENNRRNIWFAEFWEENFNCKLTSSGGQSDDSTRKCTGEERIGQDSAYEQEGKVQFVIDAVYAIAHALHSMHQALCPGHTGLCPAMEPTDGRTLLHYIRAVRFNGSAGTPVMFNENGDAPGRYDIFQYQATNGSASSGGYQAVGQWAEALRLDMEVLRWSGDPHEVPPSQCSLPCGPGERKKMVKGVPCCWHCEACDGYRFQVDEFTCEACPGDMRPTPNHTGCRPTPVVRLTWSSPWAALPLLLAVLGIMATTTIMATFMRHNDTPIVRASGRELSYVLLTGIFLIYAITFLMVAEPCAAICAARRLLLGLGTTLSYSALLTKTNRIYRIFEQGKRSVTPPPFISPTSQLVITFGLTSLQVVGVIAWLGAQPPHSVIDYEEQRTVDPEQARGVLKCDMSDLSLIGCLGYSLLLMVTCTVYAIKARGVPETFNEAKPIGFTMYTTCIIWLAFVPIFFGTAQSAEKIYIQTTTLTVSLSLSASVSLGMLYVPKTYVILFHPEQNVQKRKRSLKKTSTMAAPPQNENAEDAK

[7] = molecular target: Metabotropic glutamate receptor 7 (Rattus norvegicus) (UniProt P35400); experiment: Agonist activity at rat mGluR7 receptor expressed in HEK293 cells at 30 uM by IP-1 HTRF assay; format: functional, cell-based
[8] = molecular target: Metabotropic glutamate receptor 8 (Rattus norvegicus) (UniProt P70579); experiment: Agonist activity at rat mGluR8 receptor expressed in HEK293 cells at 30 uM by IP-1 HTRF assay; format: functional, cell-based
Metabotropic glutamate receptor 8 (Rattus norvegicus), sequence (P70579 whole entry): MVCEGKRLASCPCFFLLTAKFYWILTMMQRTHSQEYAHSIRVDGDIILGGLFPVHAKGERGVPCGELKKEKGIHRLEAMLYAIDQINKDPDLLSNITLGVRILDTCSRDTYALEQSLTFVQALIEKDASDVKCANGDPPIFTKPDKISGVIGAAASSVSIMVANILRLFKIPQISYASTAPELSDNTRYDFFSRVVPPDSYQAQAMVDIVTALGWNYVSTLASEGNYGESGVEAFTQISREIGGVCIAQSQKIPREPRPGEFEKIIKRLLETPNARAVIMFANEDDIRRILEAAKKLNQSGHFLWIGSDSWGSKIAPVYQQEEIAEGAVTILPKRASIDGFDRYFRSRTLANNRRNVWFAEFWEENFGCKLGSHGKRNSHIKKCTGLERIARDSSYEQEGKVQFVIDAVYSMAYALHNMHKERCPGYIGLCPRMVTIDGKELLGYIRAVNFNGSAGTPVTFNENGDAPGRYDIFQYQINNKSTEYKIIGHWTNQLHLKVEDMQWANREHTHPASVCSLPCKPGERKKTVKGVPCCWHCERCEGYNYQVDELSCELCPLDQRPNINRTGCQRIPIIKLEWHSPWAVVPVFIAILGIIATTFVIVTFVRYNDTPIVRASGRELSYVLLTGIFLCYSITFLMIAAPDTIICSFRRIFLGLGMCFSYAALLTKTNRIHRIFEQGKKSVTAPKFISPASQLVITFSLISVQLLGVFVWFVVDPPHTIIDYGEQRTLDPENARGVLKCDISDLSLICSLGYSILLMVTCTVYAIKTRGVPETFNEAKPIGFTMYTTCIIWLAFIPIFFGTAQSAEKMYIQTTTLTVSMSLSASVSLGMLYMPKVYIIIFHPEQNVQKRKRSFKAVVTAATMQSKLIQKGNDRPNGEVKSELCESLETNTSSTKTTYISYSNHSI

[9] = molecular target: Metabotropic glutamate receptor 1 (Rattus norvegicus) (UniProt P23385); experiment: Antagonist activity at rat mGluR1 receptor expressed in HEK293 cells by IP-1 HTRF assay; format: functional, cell-based
[10] = molecular target: Metabotropic glutamate receptor 5 (Rattus norvegicus) (UniProt P31424); experiment: Antagonist activity at rat mGluR5 receptor expressed in HEK293 cells by IP-1 HTRF assay; format: functional, cell-based
[11] = molecular target: Metabotropic glutamate receptor 2 (Rattus norvegicus) (UniProt P31421); experiment: Antagonist activity at rat mGluR2 receptor expressed in HEK293 cells by IP-1 HTRF assay; format: functional, cell-based
[12] = molecular target: Metabotropic glutamate receptor 3 (Rattus norvegicus) (UniProt P31422); experiment: Antagonist activity at rat mGluR3 receptor expressed in HEK293 cells by IP-1 HTRF assay; format: functional, cell-based
[13] = molecular target: Metabotropic glutamate receptor 4 (Rattus norvegicus) (UniProt P31423); experiment: Antagonist activity at rat mGluR4 receptor expressed in HEK293 cells by IP-1 HTRF assay; format: functional, cell-based
[14] = molecular target: Metabotropic glutamate receptor 6 (Rattus norvegicus) (UniProt P35349); experiment: Antagonist activity at rat mGluR6 receptor expressed in HEK293 cells by IP-1 HTRF assay; format: functional, cell-based
[15] = molecular target: Metabotropic glutamate receptor 7 (Rattus norvegicus) (UniProt P35400); experiment: Antagonist activity at rat mGluR7 receptor expressed in HEK293 cells by IP-1 HTRF assay; format: functional, cell-based
[16] = molecular target: Metabotropic glutamate receptor 8 (Rattus norvegicus) (UniProt P70579); experiment: Antagonist activity at rat mGluR8 receptor expressed in HEK293 cells by IP-1 HTRF assay; format: functional, cell-based
[17] = molecular target: Metabotropic glutamate receptor 2 (Rattus norvegicus, UniProt P31421); experiment: Agonist activity at rat mGluR2 receptor expressed in HEK293 cells by IP-1 HTRF assay; format: functional, cell-based; conditions: for pEC50: read-out: EC50
[18] = molecular target: Metabotropic glutamate receptor 3 (Homo sapiens, UniProt Q14832); experiment: Agonist activity at human recombinant mGluR3 receptor assessed as inhibition of forskolin-stimulated [3H]cAMP accumulation incubated for 20 mins by SPA kit analysis; format: functional
[19] = molecular target: Metabotropic glutamate receptor 2 (Homo sapiens, UniProt Q14416); experiment: Agonist activity at human recombinant mGluR2 receptor assessed as inhibition of forskolin-stimulated [3H]cAMP accumulation incubated for 20 mins by SPA kit analysis; format: functional
[20] = molecular target: Metabotropic glutamate receptor 1 (Rattus norvegicus, UniProt P23385); experiment: Agonist activity at rat mGluR1 receptor expressed in HEK293 cells by IP-1 HTRF assay; format: functional, cell-based; conditions: read-out: EC50
[21] = molecular target: Metabotropic glutamate receptor 5 (Rattus norvegicus, UniProt P31424); experiment: Agonist activity at rat mGluR5 receptor expressed in HEK293 cells by IP-1 HTRF assay; format: functional, cell-based; conditions: read-out: EC50
[22] = molecular target: Metabotropic glutamate receptor 3 (Rattus norvegicus, UniProt P31422); experiment: Agonist activity at rat mGluR3 receptor expressed in HEK293 cells by IP-1 HTRF assay; format: functional, cell-based
[23] = molecular target: Metabotropic glutamate receptor 4 (Rattus norvegicus, UniProt P31423); experiment: Agonist activity at rat mGluR4 receptor expressed in HEK293 cells by IP-1 HTRF assay; format: functional, cell-based
[24] = molecular target: Metabotropic glutamate receptor 6 (Rattus norvegicus, UniProt P35349); experiment: Agonist activity at rat mGluR6 receptor expressed in HEK293 cells by IP-1 HTRF assay; format: functional, cell-based; conditions: read-out: EC50
Metabotropic glutamate receptor 6, sequence (P35349 whole entry): as the sequence (P35349 whole entry) above

[25] = molecular target: Metabotropic glutamate receptor 7 (Rattus norvegicus, UniProt P35400); experiment: Agonist activity at rat mGluR7 receptor expressed in HEK293 cells by IP-1 HTRF assay; format: functional, cell-based
[26] = molecular target: Metabotropic glutamate receptor 8 (Rattus norvegicus, UniProt P70579); experiment: Agonist activity at rat mGluR8 receptor expressed in HEK293 cells by IP-1 HTRF assay; format: functional, cell-based
Metabotropic glutamate receptor 8, sequence (P70579 whole entry): as the sequence (P70579 whole entry) above

SMILES | Activity [1] | Activity [2] | Activity [3] | Activity [4] | Activity [5] | Activity [6] | Activity [7] | Activity [8] | inhibition [9] | inhibition [10] | inhibition [11] | inhibition [12] | inhibition [13] | inhibition [14] | inhibition [15] | inhibition [16] | pEC50 [18] | other results
C[C@@]1(C[C@H](N)C(=O)O)C[C@@H]1C(=O)O | inactive | inactive | – | inactive | inactive | inactive | inactive | inactive | inactive | inactive | inactive | inactive | inactive | inactive | inactive | inactive | – | pEC50 [17]: 5.12
C[C@]1(C[C@H](N)C(=O)O)C[C@H]1C(=O)O | inactive | inactive | inactive | inactive | inactive | inactive | inactive | inactive | inactive | inactive | inactive | inactive | inactive | inactive | inactive | inactive | – | –
N[C@@H](CCC(=O)O)C(=O)O [GLUTAMIC ACID] | – | – | – | – | – | – | – | – | – | – | – | – | – | – | – | – | 5.05 | –
N[C@H](C(=O)O)[C@H]1C[C@@H]1C(=O)O | – | – | – | – | – | – | – | – | – | – | – | – | – | – | – | – | 6.22 | pEC50 [19]: 6.52
C[C@]1(C[C@H](N)C(=O)O)C[C@@H]1C(=O)O | inactive | inactive | inactive | inactive | inactive | inactive | inactive | inactive | inactive | inactive | inactive | inactive | inactive | inactive | inactive | inactive | – | –
C[C@H]1[C@H](C(=O)O)[C@H]1[C@H](N)C(=O)O | – | – | – | – | – | – | – | – | – | – | – | – | – | – | – | – | 7.42 | pEC50 [19]: 8.10

Second part, led by results:

Activity [1] | Activity [2] | Activity [3] | Activity [4] | Activity [5] | Activity [6] | Activity [7] | Activity [8] | inhibition [9] | inhibition [10] | inhibition [11] | inhibition [12] | inhibition [13] | inhibition [14] | inhibition [15] | inhibition [16] | pEC50 [18] | SMILES | other results
inactive | inactive | inactive | inactive | inactive | inactive | inactive | inactive | inactive | inactive | inactive | inactive | inactive | inactive | inactive | inactive | – | CC[C@]1(C(=O)O)C[C@@H]1[C@H](N)C(=O)O | –
– | – | – | – | – | – | – | – | inactive | inactive | inactive | inactive | inactive | inactive | inactive | inactive | – | CC[C@@]1(C(=O)O)C[C@H]1[C@H](N)C(=O)O | pEC50 [20]: < 4.52; pEC50 [21]: < 4.52; pEC50 [17]: 5.75; EC50 ([17]; read-out: pEC50 (converted)): 1.82 µM; pEC50 [22]: < 4.52; pEC50 [23]: < 4.52; pEC50 [24]: 4.58; pEC50 [25]: < 4.52; pEC50 [26]: < 4.52
– | – | – | – | – | – | – | – | – | – | – | – | – | – | – | – | 7.42 | N[C@H](C(=O)O)[C@H]1[C@@H](CO)[C@@H]1C(=O)O | –
